Experimental data as given in patent publication US20030068611A1, “Methods for increasing microbial metabolic efficiency through regulation of oxidative stress” (priority 2001, published 2003).

Experiments:
Type in all cases: cell-based, E. coli
[1] = system: wild type; settings: 10 microliters of 30% hydrogen peroxide or cumene hydroperoxide on 1/4 in filter disc on LB plate, 24 h at 37° C., typical numbers
[2] = system: oxyR2; settings: 10 microliters of 30% hydrogen peroxide or cumene hydroperoxide on 1/4 in filter disc on LB plate, 24 h at 37° C., typical numbers
[3] = system: MC4100oxyR2; test: resistance to organic solvent, tetralin overlay on LB plate, oxyR2 mutant; settings: oxyR2 mutant strain; 5 mm depth tetralin overlay on LB agar; overnight at 37° C.
Method: (§1) Wild type MC4100/oxyR^+ and MC4100oxyR2 mutants were streaked onto the same LB plate made with a 80 mm diameter PYREX Petri dish (VWR International, West Chester, Pa.). Solvent tetralin (1,2,3,4-tetrahydronaphthalene) was then poured onto the LB agar surface to have a 5 mm depth of overlay. The plate was then covered with a Petri dish cover and sealed with a strip of parafilm (American National Can, Chicago, Ill.), and put into 37° C. incubator. After overnight culturing, tetralin was decanted and the plate was put into a fume hood for 30 min to allow evaporation of the remaining tetralin. A picture of the plate was taken with an Eagle Eye® II still imaging system (Stratagene, La Jolla, Calif.).

[4] = system: MC4100/oxyR^+; test: resistance to organic solvent, tetralin overlay on LB plate, wild type; settings: wild type strain (oxyR^+); 5 mm depth tetralin overlay on LB agar; overnight at 37° C.
Method: as §1

| Structure (SMILES) | Diameter of the zone killed [1] [mm] | Diameter of the zone killed [2] [mm] | colony growth under solvent overlay [3] | colony growth under solvent overlay [4] |
| --- | --- | --- | --- | --- |
| OO [Hydrogen peroxide] | 25 | 13 | – | – |
| c1ccc2c(c1)CCCC2 [tetralin, 1,2,3,4-tetrahydronaphthalene] | – | – | grew just fine | No colony was observed |
